# Laboratory results from PMC8835475, “Salviolone from Salvia miltiorrhiza Roots Impairs Cell Cycle Progression, Colony Formation, and Metalloproteinase-2 Activity in A375 Melanoma Cells: Involvement of P21(Cip1/Waf1) Expression and STAT3 Phosphorylation” (International Journal of Molecular Sciences, 2022).
# Assays:
# Format in all cases: cell-based, human
# [1] = system: Tyr705-STAT3 phosphorylation; test: Immunoblot of p-Tyr705-STAT3 in A375 cells; conditions: A375, 20 µM; for STAT3 activity (tyrosine and serine phosphorylation): 48 h; for Tyr705-STAT3 phosphorylation: 72 h, vs untreated cells
# Method: (§1) A375 cells were seeded in 6 cm Petri dishes (190 300 cell/dish) and treated with different compounds at 10 or 20 μM. After 48- or 72-h treatment, the cells were scraped using warm 1× sample buffer (2% SDS, 10% glycerol, 50 mM Tris-HCl, 1.75% β-mercaptoethanol, and bromophenol blue) and boiled at 99 °C for 10 min. Total protein extracts were kept at −80 °C until use.
# Protein extracts were analyzed with a 7.5 or 10% polyacrylamide SDS-PAGE and transferred to a polyvinylidene difluoride membrane (PVDF, Thermo Fisher Scientific, Waltham, MA, USA). The membranes were blocked at RT for 1 h with TBST buffer (10 mM Tris-HCl pH 7.5, 100 mM NaCl, 0.1% Tween20) containing 4% Milk (Formulat). Then, they were incubated on a shaker, overnight (ON) at 4 °C, with 5% BSA solution containing primary antibodies against p-Tyr705-STAT3 (#9145, 1:1000), pRb (#8516, 1:2000), pERK (#4370, 1:1000), pAkt (#4060, 1:2000), pSer15-P53 (#9286, 1:2000) (Cell Signaling Technology, Danvers, […], USA), Akt (GTX121937, 1:3000), ERK (GTX134452, 1:6000), Cyclin A2 (GTX-103042, 1:3000), p-Thr160Cdk2 (GTX-133862, 1:3000), p21 (GTX-629543, 1:3000) (Genetex, Alton Pkwj Irvine, CA, USA), p53 (Sc-263, 1:1000), STAT3 (Sc-482, 1:1000), and p-Ser727-STAT3 (Sc-136193, 1:1000) (Santa Cruz Biotechnology, Dallas, TX, USA). The membranes were washed three times with TBST buffer for 30 min and then incubated for 1 h with a horseradish-peroxidase-conjugated secondary antibody (anti-rabbit 1:6000, Genetex), (anti-mouse, 1:4000, Cell Signaling Technology, Danvers, […], USA). They were washed another three times for 30 min with TBST buffer. All protein extracts were normalized with a β-actin protein antibody (GTX-124214, 1:10,000; Genetex, Alton Pkwj Irvine, CA, USA). Immuno-detection was carried out with an ECL kit (GE-Healthcare, Little Chalfont, UK), and the chemiluminescence signals were detected with ChemiDoc (Bio-Rad, Hercules, CA, USA).
# [2] = system: A375 cells; test: Wound closure cell migration assay; conditions: A375, 20 µM, vs controls
# Method: The wound healing assay is widely used to measure cell migration. The method is based on quantifying the rate at which cells can close an artificial scratch created in a confluent cell monolayer. A375 cells were seeded in 12-well plates (120 × 10^3 cells/well) and, once confluence was reached, the monolayer was scratched with a sterile 10 μL pipette tip. […] Then, either cryptotanshinone (4) or salviolone (7) at 10 or 20 µM was added to the culture. After 0-, 8-, 24- and 30-h culture, images were captured with Zeiss Axio Vert. (Zeiss, Milan, Italy) to measure the delay to repopulate the scratch in comparison with the non-treated control sample.
# [3] = system: cyclin A2; test: Immunoblot of cyclin A2 in A375 cells; conditions: A375, 20 µM, 48 or 72 h
# Method: as §1
# (§2) Protein extracts were analyzed with a 7.5 or 10% polyacrylamide SDS-PAGE and transferred to a polyvinylidene difluoride membrane (PVDF, Thermo Fisher Scientific, Waltham, MA, USA). The membranes were blocked at RT for 1 h with TBST buffer (10 mM Tris-HCl pH 7.5, 100 mM NaCl, 0.1% Tween20) containing 4% Milk (Formulat). […] Immuno-detection was carried out with an ECL kit (GE-Healthcare, Little Chalfont, UK), and the chemiluminescence signals were detected with ChemiDoc (Bio-Rad, Hercules, CA, USA).
# [4] = system: MeWo melanoma cell line; test: SRB cell viability assay in MeWo cells; conditions: for inhibition of melanoma cell viability: 20 µM; for inhibition of melanoma cell viability / EC50: 72 h; for EC50: Homo sapiens, read-out: EC50 useful in diminishing cell viability; for EC50 / viability reduction in melanoma cells: SRB; for viability reduction in melanoma cells: 40–60 µM
# Method: In preliminary experiments, the evaluation of cell viability at different time after compound administration was carried out with sulforhodamine B (SRB) assay. Indeed, after 24-, 48-, and 72-h treatment, an evident time dependence in the inhibition of cell growth was registered (data not shown). Thus, to evaluate A375 and MeWo cell viability, we decided to perform further SRB experiments with each compound only after 72 h.
# Human MeWo (HTB-65) and A375 (CRL-1619) melanoma cell lines as well as the normal human epidermal melanocyte (NHEM) (PCS-200-013) cell line (ATCC, Manassas, VA, USA) were cultured at 37 °C under 5% CO2 in a humidified atmosphere. Roswell Park Memorial Institute 1640 medium (RPMI, Gibco, Ref.21875, Thermo Scientific, Waltham, MA, USA) was used to culture MeWo cells, while Dulbecco’s Modified Eagle Medium (DMEM, Gibco, Ref. 61965, Thermo Scientific, Waltham, MA, USA) was used for A375 and NHEM cell lines. The culture media were supplemented with 10% fetal bovine serum (FBS, Gibco, Thermo Scientific, Waltham, MA, USA) plus 1% Antibiotic Antimycotic Solution (Gibco, Thermo Scientific). The MEK1 inhibitor U0126 (CAY-70970) and the PI3K inhibitor LY294002 (CAY-70920) were provided by Cayman Chemical, Ann Arbor, MI, USA.
# Melanoma MeWo and A375 cells or NHEM were seeded in 96-well plates (5.0 × 10^3 cells/well for MeWo cells and 2.9 × 10^3 cells/well for A375 or NHEM). After 24-h culture, the cells were treated with different concentrations of compounds 1–7. After 72-h treatment, the cells were fixed by adding 25 µL/well of 50% (w/v) TCA directly into the culture medium. The plates were incubated at 4 °C for 1 h, washed four times with ddH2O, and dried at RT. Staining was performed by adding 50 µL/well of 0.04% (w/v) sulforhodamine B (SRB) sodium salt solution (Sigma-Aldrich, Milan, Italy). After 1-h incubation at RT, the plates were rinsed with 1% HAc and air-dried. SRB was solubilized in a 10 mM Tris-base solution pH 10.5 and Abs492 measured in the plate reader TECAN NanoQuant Infinite M200 Pro (Tecan Group Ltd., Männedorf, Switzerland). Six replicates for each condition/data point were performed.
# [5] = system: P21(Cip1/Waf1); test: Immunoblot of P21 in A375 cells; conditions: A375, 20 µM, 48 and 72 h
# Method: as §1, §2
# [6] = system: pSer15-P53 (pP53); test: Immunoblot of pSer15-P53 in A375 cells; conditions: A375, 20 µM, vs untreated
# Method: as §1, §2
# [7] = system: p-Ser727-STAT3; test: Immunoblot of p-Ser727-STAT3 in A375 cells; conditions: A375, 20 µM, 72 h
# Method: as §1, §2
SMILES,STAT3 activity (tyrosine and serine phosphorylation) [1],Tyr705-STAT3 phosphorylation [1],A375 cell migration rate / wound healing closure [2],cyclin A2 expression level [3],inhibition of melanoma cell viability [4],EC50 [4],viability reduction in melanoma cells [4],P21 expression level [5],pSer15-P53 (pP53) expression / P53 phosphorylation level [6],p-Ser727-STAT3 level [7]
"C[C@H]1COC2=C1C(=O)C(=O)c1c2ccc2c1CCCC2(C)C [Compound 4, cryptotanshinone]",did not significantly change,significant reduction,slow down,slightly reduced,about 50%,17 µM,70–80%,significantly increased,no significant increase,increase
"Cc1cc2ccc3c(c2cc(O)c1=O)CCCC3(C)C [Compound 7, salviolone]",did not significantly change,significant reduction,did not significantly delay,strongly reduced,about 50%,22 µM,70–80%,strongly increased,higher,increase
